Among the data in ChEMBL document CHEMBL3879913, “NMDA receptor modulators and uses related thereto” (2014) are Activity values, retold here.

In this experiment the target is Glutamate NMDA receptor; Grin1/Grin2c (Rattus norvegicus) (UniProt P35439+Q00961). Put plainly: Modulation of recombinant rat GluN1/GluN2C expressed in Xenopus laevis oocytes assessed as potentiation of glycine/glutamate-induced current by measuring receptor response at 100 uM by two-electrode voltage-clamp method relative to control. Type of experiment: cell-based. A general note: In two-electrode clamp one electrode senses voltage and the other passes current.

For the compound `COC(=O)c1ccc(C2C(C(=O)c3ccncc3)=C(O)C(=O)N2CCc2ccncc2)cc1` (configuration not stated), the Activity is 97%.

As to `COC(=O)c1ccc(C2C(C(=O)c3ccncc3)=C(O)C(=O)N2CCc2c[nH]cn2)cc1` (configuration not stated), the Activity was determined as 84%.
